The values that follow come from the NIST ThermoML archive (doi:10.1021/acs.jced.5b00738).

The nature of this data set: refractive index (Na D-line) (dimensionless). Conditions: 298.15 K; 101.33 kPa; Liquid; Standard Abbe refractometry.

Numbers after ± are expanded uncertainties.

As for `CC(C)=O` [acetone], the refractive index was 1.35553 ± 0.001.

As to `O=Cc1ccco1` [2-furaldehyde], the refractive index is 1.52263 ± 0.001.

On to `O` [water], for which the refractive index amounted to 1.33249 ± 0.001.

Consider `CCC(C)(C)O` [2-methylbutan-2-ol], for which the refractive index turned out to be 1.40219 ± 0.001.

For `CC(=O)CC(C)C` [4-methylpentan-2-one], the refractive index was 1.39327 ± 0.001.
